Assay results: patent US10918891B2, “Cosmetic treatment method for the skin” (SYNTIVIA, priority 2016, dated 2021)

How the values were obtained:
[1] = system: NativeSkin® skin explants (Genoskin); assay: Breaks in the DNA (γ-H2AX marking) of NativeSkin skin explant ex vivo after UVA irradiation; type: cell-based, human; settings: composition 0.9 mmol/L topical, 60 J/cm^2 UVA every day for 3 days, n=10 images, FIG. 7
Description: (§1) The test was carried out on NativeSkin® skin explants (Genoskin), a biopsy of skin bathed in a solid, nourishing matrix while its epidermal surface is preserved in contact with the air. The biopsy is firmly anchored in the matrix and sealed in order to prevent any lateral diffusion of formulation intended for topical application.
(§2) The study was carried out on a donor (phototype 2) under the following conditions.
(§3) The compounds tested are implemented in a composition containing them at 0.9 mmol/L in a mixture of Carbopol® (0.5% p/p), DMSO (0.1% p/p) and H2O (qsp 100%).
(§4) The samples are irradiated at 60 J/cm^2 UVA every day for 3 days. A treatment is carried out for 24 h before the irradiation, by application of the composition tested onto the sample (deposition of 40 μl of composition onto the stratum corneum), then a post-treatment of 24 h after the irradiation, in the same manner.
(§5) A Control of the sample of skin non-irradiated and a Control of the sample of skin irradiated are also carried out, both with application of the vehicle alone (0.5% Carbopol®, 0.1% DMSO, H2O). The Control of the non-irradiated sample of skin is introduced into the irradiator in a sheet of aluminium, in such a way as to protect it against UVs.
(§6) The samples are sampled, cut (according to the conventional method of cryo-sectioning implementing paraffin and freezing) and fixed in 1 ml of formalin for 24 h.
(§7) The explants are then included in paraffin and sections of 5 μm are made.
The slides obtained are also marked by immunohistochemistry with the biomarker γ-H2Ax.
(§8) The analysis of the marking is carried out with a DM5000B fluorescence microscope (Leica Microsystems) and 10 images are acquired for each sample.
For the marking with γ-H2Ax, for each image, the total number of nuclei is detected with 4′,6-diamidino-2-phenylindole (dapi). In the same image, the number of nuclei having the marking is quantified. The ratio of the number of positive nuclei, multiplied by 100, to the number of total nuclei, is calculated, in order to obtain a percentage (=(positive nuclei*100)/total nuclei), n=10 per sample.
A statistical analysis is carried out with a student's test by comparing the samples to the control (p value[…], p value<0.05**, p value<0.005***, ns not significant).

[2] = system: NativeSkin® skin explants (Genoskin); assay: Histological analysis (haematoxylin/eosin) of NativeSkin skin explant ex vivo after UVA irradiation; type: cell-based, human; settings: composition 0.9 mmol/L topical, 60 J/cm^2 UVA every day for 3 days, FIG. 5
Description: as §1, §2, §3, §4, §5, §6, §7
The slides are then coloured with haematoxylin (basic compound marking the nuclei) and eosin (acidic compound marking the conjunctive tissue).
as §8

[3] = system: normal human Keratinocytes (NHEK); assay: Reactive oxygen species (H2DCFDA probe) in NHEK after single UVA stress; type: cell-based; settings: 24 h incubation; (Ia) 3 ppm, Trolox 20 ppm, Quercetin 18 ppm; UVA 10 J/cm2; normalised to viability (MTS); CTL UVA 289687.6, CTL without stress 16441.9
Description: The cells used for this example are normal human Keratinocytes (NHEK).
The antioxidant properties (neutralising the production of reactive oxygen species) of the compound (Ia) are evaluated after a single stress with UVAs on NHEKs, by a test based on the use of the fluorescent probe H2DCFDA on a triple culture.
H2DCFDA (2′-7′dichlorodihydrofluorescein diacetate, Fischer Scientific) is a probe that, after having diffused into the cell and after its acetate group has been split by intracellular esterases, can be oxidised by free radicals (H2O2) into DCF (2′-7′ dichlorofluorescein), a fluorescent compound. The production of the free radicals can thus be quantified by the level of fluorescence emitted by the oxidised probe. The more the cell produces free radicals, the higher the level of fluorescence detected.
After 24 hours of incubation with the compound (Ia) (3 ppm in an aqueous solution with 0.1% dimethylsulfoxide) or the reference elements, the cells are placed in the presence of the H2DCFDA probe at 3 ppm for 1 hour at 37° C., 5% CO2 in order to allow its intracellular diffusion.
The reference antioxidant elements are: Trolox ([…], Sigma), at 20 ppm and Quercetin (quercetin dihydrate, Sigma), at 18 ppm.
After one rinsing, the cells are subjected to a single stress with UVAs (in the absence of compound (Ia)) at a rate of 10 joules per square centimetre. The quantification of the fluorescence emitted (excitation: 485 nm; emission: 520 nm) is carried out immediately after the end of the UVA stress. […]
In order to provide a result representative of the cellular population of each condition after a single stress with UVAs, a cellular viability test (MTS) is carried out immediately after the quantification of the fluorescence emitted. The fluorescence values are thus normalised with respect to the cellular viabilities in order for it to be possible to compare the levels of fluorescence of the various conditions to each other.

[4] = system: IL-8; assay: IL-8 assay (ELISA) in culture supernatants of NHEK after induction with IL-1β; type: cell-based, human; settings: IL-1β 10 ng/ml 24 h, then substance 24 h, compound (Ia) 3 ppm, dexamethasone 0.4 ppm, CTL 0.23, CTL without IL-1β 0.06
Description: This study is carried out on normal human Keratinocytes (NHEK).
In this example, the anti-inflammatory properties of the compound (Ia) are evaluated by the assay of the IL-8, after the application of the cytokine IL-1β at 10 ng/ml onto NHEKs. IL-8 is a major inflammatory cytokine produced first of all during the inflammatory response of the keratinocytes. The quantification of the IL-8 in the culture supernatants allows an evaluation of the inflammatory state of the cells.
The IL-1β is added to the culture medium of the NHEKs at a rate of 10 ng/ml for 24 h. After incubation, the culture media are removed and replaced with culture media containing the compound (Ia) at 3 ppm. After 24 h of incubation, the supernatants are collected.
The reference anti-inflammatory element is dexamethasone (Sigma) used at 0.4 ppm. A control having undergone the same experimental conditions without the compound (Ia) (CTL), as well as a non-induced control (CTL without IL-1β), are also carried out.
The quantification of the IL-8 in 50 μl of the culture supernatants is measured by an ELISA test (human CXCL8/IL-8 Immunoassay, R&D Systems).
Each treatment is carried out in triplicate.

[5] = system: NHEK cells; assay: Survival (WST1) of NHEK keratinocytes exposed to cigarette extract, comparison with caffeic acid; type: cell-based, human; settings: compound 10 ppm pretreatment 24 h and treatment 24 h, cigarette extract 1/50, cigarette extract alone 55% survival, FIG. 4
Description: This study aims to compare the protective or repairing effect of the compounds according to the invention (Ia) and (Ib) with respect to the damage induced on the skin by a cigarette extract. For comparison, caffeic acid (supplier: Acros) is also tested. This acid forms a basic unit of the compounds (Ia) and (Ib) according to the invention.
The NHEK cells are inoculated in a 96-well plate in a suitable medium (Promocell), at a rate of 9000 cells per well, and incubated 24 h at 37° C. and 5% carbon dioxide.
The compounds to be tested are prepared as follows: • (Ia): 10 mg of compound+909 μL of DMSO • (Ib): 7 mg of compound+636 μL of DMSO • caffeic acid: 10 mg of compound+909 μL of DMSO
Each stock solution above is diluted 1000 times, to 10 ppm in the culture medium, then the solutions obtained are filtered by means of a nylon filter (0.22 μm). The final solutions are concentrated to 10 ppm in 0.1% DMSO.
Solutions at 20 ppm in 0.2% DMSO are also prepared in a similar manner, for dilution in the cigarette extract.
An extract of 20 cigarettes is prepared as indicated in example 14 above. This extract is then diluted to 1/50 in the culture medium; or to 2/50 in the culture medium, then to 1/2 in the culture medium, to which the compound to be tested is added at 20 ppm.
The cells are pretreated for 24 h with the compound to be tested at 10 ppm in the culture medium.
The cells are then treated with the cigarette extract diluted to 1/50th with or without the compound tested at 10 ppm for 24 h.
3 h before the end of the test, 10 μl of WST1 cellular proliferation reactant (Roche) are added into each well. The absorbance at 450 nm is measured before and after the addition of WST1 reactant, by means of a Multiskan® reader. The treated cells are compared to the untreated cells and to the cells exposed to the cigarette extract.

Cc1ncc(CO)c(CNC(=O)/C=C/c2ccc(O)cc2)c1O [Compound (Id), (E)-N-((3-hydroxy-5-(hydroxymethyl)-2-methylpyridin-4-yl)-methyl)-3-(4-hydroxyphenyl)-acrylamide]
percentage of nuclei positive for marking with γ-H2AX, compared with controls [1]: clearly reduced with respect to the irradiated control sample
Morphology of the epidermis after UVA irradiation (histological analysis) [2]: partly protected

O.O.O=c1c(O)c(-c2ccc(O)c(O)c2)oc2cc(O)cc(O)c12 [Quercetin, quercetin dihydrate, reference compound]
Assay of the fluorescence with H2DCFDA after irradiation of NHEKs with UVAs [3]: 207589.6

Cc1ncc(CO)c(CN)c1O [pyridoxamine, reference compound]
percentage of nuclei positive for marking with γ-H2AX, compared with controls [1]: level similar to the irradiated sample
Morphology of the epidermis after UVA irradiation (histological analysis) [2]: phenotype of the irradiated sample is also found

C[C@@H]1C[C@H]2[C@@H]3CCC4=CC(=O)C=C[C@]4(C)[C@@]3(F)[C@@H](O)C[C@]2(C)[C@@]1(O)C(=O)CO [Dexamethasone, dexamethasone, reference compound]
Quantification of the IL8 (optical density) [4]: 0.13 optical density

COc1cc(/C=C/C(=O)NCc2c(CO)cnc(C)c2O)ccc1O [Compound (Ib), (E)-3-(4-hydroxy-3-methoxyphenyl)-N-((3-hydroxy-5-(hydroxymethyl)-2-methylpyridin-4-yl)-methyl)-acrylamide]
% survival of the cells [5]: 76%

COc1ccc(/C=C/C(=O)NCc2c(CO)cnc(C)c2O)cc1O [Compound (Ic), (E)-3-(3-hydroxy-4-methoxyphenyl)-N-((3-hydroxy-5-(hydroxymethyl)-2-methylpyridin-4-yl)-methyl)-acrylamide]
percentage of nuclei positive for marking with γ-H2AX, compared with controls [1]: same phenotype as the non-irradiated control sample
Morphology of the epidermis after UVA irradiation (histological analysis) [2]: totally protected

Cc1ncc(CO)c(CNC(=O)CCCC[C@@H]2CCSS2)c1O [Comp.1, reference compound]
percentage of nuclei positive for marking with γ-H2AX, compared with controls [1]: level similar to the irradiated sample
Morphology of the epidermis after UVA irradiation (histological analysis) [2]: phenotype of the irradiated sample is also found

O=C(O)/C=C/c1ccc(O)c(O)c1 [caffeic acid, reference compound]
percentage of nuclei positive for marking with γ-H2AX, compared with controls [1]: level similar to the irradiated sample
Morphology of the epidermis after UVA irradiation (histological analysis) [2]: phenotype of the irradiated sample is also found
% survival of the cells [5]: 73%
